Data set [1] relates to O=P(O)(O)OC[C@H]1O[C@H](O[C@H]2O[C@H](CO)[C@@H](O)[C@H](O)[C@H]2O)[C@H](O)[C@@H](O)[C@@H]1O. The experiment in a line: steady-state kinetics, EnzChek phosphate assay. It counts as biochemical, Brugia malayi. The settings on record: 25 mM Tris pH 7.5, 50 mM NaCl, 5 mM MgCl2. From the text: steady-state kinetics, EnzChek phosphate assay on T6PP-Δ59
Data set [2] concerns the target T1, B. malayi T6PP (trehalose-6-phosphate phosphatase), wild type (Brugia malayi, UniProt A8NS89).
T1 construct: gene Bm1_08695; full-length (492 residues) from cDNA library, modified pET-15b(TEV), E. coli T7 Express; N-terminal His-tag removed by TEV protease
T1 sequence (A8NS89 1-492): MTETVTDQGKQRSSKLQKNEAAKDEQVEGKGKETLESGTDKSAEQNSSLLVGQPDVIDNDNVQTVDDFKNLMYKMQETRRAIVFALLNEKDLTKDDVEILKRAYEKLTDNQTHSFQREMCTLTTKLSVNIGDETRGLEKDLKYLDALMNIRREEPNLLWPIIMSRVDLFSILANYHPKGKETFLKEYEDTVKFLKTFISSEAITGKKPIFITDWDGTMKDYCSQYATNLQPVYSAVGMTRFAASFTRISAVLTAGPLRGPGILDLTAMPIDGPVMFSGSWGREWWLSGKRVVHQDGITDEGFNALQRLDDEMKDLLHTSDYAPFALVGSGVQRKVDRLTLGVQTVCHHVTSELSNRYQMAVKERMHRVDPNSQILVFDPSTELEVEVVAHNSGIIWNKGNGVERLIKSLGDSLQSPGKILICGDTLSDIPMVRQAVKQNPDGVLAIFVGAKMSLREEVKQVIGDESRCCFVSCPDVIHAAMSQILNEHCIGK
The experiment in a line: steady-state inhibition kinetics, EnzChek phosphate assay. It is filed as biochemical. The settings on record: read-out: KI, trehalose 6-sulfate.

Data set [3] addresses T2, B. malayi T6PP (trehalose-6-phosphate phosphatase), wild type (Brugia malayi, UniProt A8NS89, Y225A).
T2 construct: gene Bm1_08695
The experiment in a line: biochemical. From the text:
(§1) steady-state inhibition kinetics, EnzChek phosphate assay on B. malayi T6PP (trehalose-6-phosphate phosphatase), wild type

Data set [4] concerns the target T3, B. malayi T6PP (trehalose-6-phosphate phosphatase), wild type (Brugia malayi, UniProt A8NS89, D378A).
T3 construct: gene Bm1_08695
The experiment in a line: biochemical.
Text: as §1

The target of data set [5] is T4, B. malayi T6PP (trehalose-6-phosphate phosphatase), wild type (Brugia malayi, UniProt A8NS89, N228A).
T4 construct: gene Bm1_08695
The experiment in a line: biochemical.
Text: as §1

Data set [6] deals with T5, B. malayi T6PP (trehalose-6-phosphate phosphatase), wild type (Brugia malayi, UniProt A8NS89, Q332A).
T5 construct: gene Bm1_08695
The experiment in a line: biochemical.
Text: as §1

In data set [7] the target is T6, B. malayi T6PP (trehalose-6-phosphate phosphatase), wild type (Brugia malayi, UniProt A8NS89, Y221A).
T6 construct: gene Bm1_08695
The experiment in a line: biochemical.
Text: as §1

The target in data set [8] is T7, B. malayi T6PP (trehalose-6-phosphate phosphatase), wild type (Brugia malayi, UniProt A8NS89, E384A).
T7 construct: gene Bm1_08695
The experiment in a line: biochemical.
Text: as §1

In data set [9] the target is T8, B. malayi T6PP (trehalose-6-phosphate phosphatase), wild type (Brugia malayi, UniProt A8NS89, S329A).
T8 construct: gene Bm1_08695
The experiment in a line: biochemical.
Text: as §1

Data set [10] addresses T9, B. malayi T6PP (trehalose-6-phosphate phosphatase), wild type (Brugia malayi, UniProt A8NS89, W280A).
T9 construct: gene Bm1_08695
The experiment in a line: biochemical.
Text: as §1

The target of data set [11] is T10, B. malayi T6PP (trehalose-6-phosphate phosphatase), wild type (Brugia malayi, UniProt A8NS89, R337A).
T10 construct: gene Bm1_08695
The experiment in a line: biochemical.
Text: as §1

For data set [12], the target named is T11, B. malayi T6PP (trehalose-6-phosphate phosphatase), wild type (Brugia malayi, UniProt A8NS89, K334A).
T11 construct: gene Bm1_08695
The experiment in a line: biochemical.
Text: as §1

Data set [13] addresses T1, B. malayi T6PP (trehalose-6-phosphate phosphatase), wild type. The experiment in a line: inhibition kinetics. It counts as biochemical.
Substrate in data set [14]: O=P(O)(O)OC[C@H]1O[C@H](O[C@H]2O[C@H](CO)[C@@H](O)[C@H](O)[C@H]2O)[C@H](O)[C@@H](O)[C@@H]1O
The experiment in a line: steady-state kinetics, EnzChek phosphate assay. Conditions: 25 mM Tris pH 7.5, 50 mM NaCl, 5 mM MgCl2. It counts as biochemical, Brugia malayi. This is another data set of the same source.

One may read the Km as the concentration of substrate that gives half-maximal velocity. Usually kcat stands for the number of substrate molecules converted per active site and unit of time at saturation. A word on the kcat/Km: it is the turnover number divided by the Michaelis constant. For the molecule T6PP-Δ59 (Brugia malayi), in data set [1], the Michaelis-Menten constant (Km) came to 260 ± 20 µM, the catalytic constant (kcat) was 28 ± 1 s⁻¹ and the kcat/Km came out at 110000 M⁻¹ s⁻¹.

For orientation: Ki means the equilibrium dissociation constant of an inhibitor or competing ligand from its target. In the case of `O=S(=O)(O)OC[C@H]1O[C@H](O[C@H]2O[C@H](CO)[C@@H](O)[C@H](O)[C@H]2O)[C@H](O)[C@@H](O)[C@@H]1O` [trehalose 6-sulfate], the Ki in [2] came to 82 ± 7 µM; in data set [3], 400 ± 40 µM; in data set [4], 320 ± 30 µM; in data set [5], 16 ± 2 µM; in [6] it was 1000 µM; in data set [7] it was 1300 µM. The Ki was determined as 200 ± 30 µM in data set [8]; 240 ± 30 µM in data set [9]; 270 ± 50 µM in data set [10]; 700 ± 100 µM in [11]; 150 ± 20 µM in data set [12].

With `O=P(O)(O)OC[C@H]1OC(O)[C@H](O)[C@@H](O)[C@@H]1O` (stereo partly shown) [glucose 6-phosphate], in data set [13] (no inhibition, substrate trehalose 6-phosphate), the Ki is > 10000 µM.

Consider `OC[C@H]1O[C@H](O[C@H]2O[C@H](CO)[C@@H](O)[C@H](O)[C@H]2O)[C@H](O)[C@@H](O)[C@@H]1O` [trehalose], for which the inhibition constant (Ki) in [13] is > 10000 µM.

B1: B. malayi T6PP (trehalose-6-phosphate phosphatase), wild type (Brugia malayi) (protein)
chain: T1 sequence (A8NS89 1-492)
notes: full-length (492 residues) from cDNA library, modified pET-15b(TEV), E. coli T7 Express; N-terminal His-tag removed by TEV protease
For B1, in data set [14], the Km came out at 360 ± 60 µM, the kcat was determined as 24 ± 2 s⁻¹ and the kcat/Km was determined as 69000 M⁻¹ s⁻¹.

The values are drawn from article PMC4081830, “Structure of the Trehalose-6-phosphate Phosphatase from Brugia malayi Reveals Key Design Principles for Anthelmintic Drugs” (PLoS Pathogens, 2014).
